Assay results as given in patent US6630124B1, “Combination therapy with VIP antagonist” (Ramot-University Authority for Applied Research and …, priority 1998, dated 2003).
Values after ≈ are worked out from the molar mass of the structure shown. “Also recorded” adds a separate entry of the source. Where two headings read alike, the source gives them in different places.

What was measured:
[1] = system: HT-29 human colon cancer; assay: MTS cell proliferation assay, SNH and chemotherapy; type: cell-based; conditions: HT-29, SNH and CPT-11 (FIG. 11)
Experimental: NCI-H727 and LNCaP were grown in RPMI 1640 medium supplemented with 10% heat inactivated FCS, L-glutamine and antibiotics. HT-29 and CT-26 were grown in DMEM medium supplemented with 10% heat-inactivated FCS (fetal calf serum), L-glutamine and antibiotics. The cells were cultured in 5% CO2/95% air at […] and used during their exponential growth phase. Routinely, the cells which are adherent, were split when a subconfluent monolayer was formed. In different experiments, various concentration of FCS were used. For growth inhibition experiments, subconfluent adherent cells were washed with PBS and treated with trypsin/versene. The cells were pelleted and resuspended in medium to a final concentration of 75,000 cells/mL for NCI-H727. 50,000 cells/mL for LNCaP and HT-29 and 25000 cells/mL for CT-26. These different concentrations were used in order to avoid confluence in the wells at the end of the experiment and correspond to the different doubling times of the cell lines. […] On day 4, viable cell number was determined by a modified MTT assay i.e., MTS non-radioactive cell proliferation assay (Promega). […] Results were finally expressed as percentage of the control, which was obtained from the samples with no drug treatment. Dose-response curves were plotted using a Sigma-Plot software and statistically analyzed using Student test. […] On day 4 the number of viable cells was determined by MTS assay.

[2] = system: cell lines derived from colon cancer and prostate cancer; assay: MTS colorimetric proliferation assay, VIP antagonist with chemotherapeutic agents (Example I); type: cell-based; conditions: combination with stearyl-Nle17-neurotensis 6-11 VIP 7-28
Experimental: Assays were performed with cell lines derived from colon cancer and prostate cancer. Proliferation was assessed using the MTS colorimetric assay of mitochondrial function for living cells. The VIP antagonist (stearyl-Nle17-neurotensis 6-11 VIP 7-28) was used.

[3] = system: NCI-H727 non-small cell lung cancer (carcinoid); assay: MTS cell proliferation assay, SNH and chemotherapy; type: cell-based; conditions: for nature of the combined effect with SNH: combination with SNH
Experimental: NCI-H727 and LNCaP were grown in RPMI 1640 medium supplemented with 10% heat inactivated FCS, L-glutamine and antibiotics. HT-29 and CT-26 were grown in DMEM medium supplemented with 10% heat-inactivated FCS (fetal calf serum), L-glutamine and antibiotics. The cells were cultured in 5% CO2/95% air at […] and used during their exponential growth phase. Routinely, the cells which are adherent, were split when a subconfluent monolayer was formed. In different experiments, various concentration of FCS were used. For growth inhibition experiments, subconfluent adherent cells were washed with PBS and treated with trypsin/versene. The cells were pelleted and resuspended in medium to a final concentration of 75,000 cells/mL for NCI-H727. 50,000 cells/mL for LNCaP and HT-29 and 25000 cells/mL for CT-26. These different concentrations were used in order to avoid confluence in the wells at the end of the experiment and correspond to the different doubling times of the cell lines. On day 0, cells suspensions […] were dispensed using a multi-channel pipet into the individual wells of a 96-well tissue culture plate (Nuncion, Nunc Brand Products). […] Cells were incubated for 24 hours in a humidified atmosphere of 95% air/5% CO2 at 37° C. before treatment. On day 1, the cells were treated with different drugs and schedules and maintained under the same conditions. On day 4, viable cell number was determined by a modified MTT assay i.e., MTS non-radioactive cell proliferation assay (Promega). […] Results were finally expressed as percentage of the control, which was obtained from the samples with no drug treatment. Dose-response curves were plotted using a Sigma-Plot software and statistically analyzed using Student test. To determine the effect of the lipophilic VIP antagonist SNH on cell proliferation, cells plated in 96-well microplates for 24 hours as described, were treated with various concentrations of SNH. The peptide was diluted in PBS and […] of the peptide solution was added to each well for a final concentration of the peptide between 10^−510^−9 M. The solvent was added to the control wells. […] A dose-response curve was obtained at concentrations ranging from 2 μM-10 μM (see, FIG. 2). […] The effects of an 8 hours treatment were slightly less, showing that most of the effect is in the initial hours of exposure and much more dose than time dependent. […] For the experiments with the combinations of VIP antagonists and chemotherapeutic agents, on day 0, the cells were plated for 24 hours in medium supplemented with 5% FCS. On day 1, the peptide was added to the wells followed 1 hour later by the chemotherapeutic agents. […] The chemotherapeutic drugs were tested over 7 concentrations, covering as much as possible of the dose response curve of each individual drug. 24 hours later, the medium was exchanged and the cells incubated under the same conditions for another 48 hours. On day 4 the number of viable cells was determined by MTS assay.

[4] = system: CT-26 murine colon cancer; assay: MTS cell proliferation assay, SNH and chemotherapy; type: cell-based; conditions: CT-26, SNH and CPT-11 (FIG. 10)
Experimental: NCI-H727 and LNCaP were grown in RPMI 1640 medium supplemented with 10% heat inactivated FCS, L-glutamine and antibiotics. HT-29 and CT-26 were grown in DMEM medium supplemented with 10% heat-inactivated FCS (fetal calf serum), L-glutamine and antibiotics. The cells were cultured in 5% CO2/95% air at […] and used during their exponential growth phase. Routinely, the cells which are adherent, were split when a subconfluent monolayer was formed. In different experiments, various concentration of FCS were used.
For growth inhibition experiments, subconfluent adherent cells were washed with PBS and treated with trypsin/versene. The cells were pelleted and resuspended in medium to a final concentration of 75,000 cells/mL for NCI-H727. 50,000 cells/mL for LNCaP and HT-29 and 25000 cells/mL for CT-26. […]
On day 4, viable cell number was determined by a modified MTT assay i.e., MTS non-radioactive cell proliferation assay (Promega). Briefly, […] of freshly prepared MTS/PMS solution was added to each individual well and after 1-3 hours of incubation (the optimal time was determined for each cell line) absorbance at 490 nm was measured using a multiscan plate reader. Results were finally expressed as percentage of the control, which was obtained from the samples with no drug treatment. Dose-response curves were plotted using a Sigma-Plot software and statistically analyzed using Student test. […]

[5] = system: NCI-H727 non-small cell lung cancer (carcinoid); assay: MTS cell proliferation assay, SNH and chemotherapy; type: cell-based; conditions: 8 μM SNH 2 h, then Taxol 0.003-1 μg/ml 4 h, then fresh medium 66 h
[6] = system: MDA-MB231 xenografts; assay: MDA-MB231 breast cancer xenografts in nude mice; type: in vivo, Balb/c nude mice; conditions: after 4 weeks; VIPhyb 10 μg/day s.c., Taxol 1.5 mg i.p. once; PBS control 1121 mm^3
Experimental: To test the proliferative aspects of VIPhybrid analogs in vivo, nude mice bearing breast cancer xenografts were utilized. Female athymic Balb/c nude mice, 4-5 weeks old, were housed in a pathogen-free temperature controlled isolation room and the diet consisted of autoclaved rodent chow and autoclaved water given ad libitum. MDA-MB231 cells (1×10^7) were injected into the right flank of each mouse subcutaneously. […] PBS (100 μl) or VIPhyb analogs (10 μg/day) were injected subcutaneously adjacent to the tumor. Taxol was injected once (1.5 mg i.p.) after 2 weeks. The tumor volume (height×width×depth) was determined twice weekly by calipers and recorded.

[7] = system: NCI-H1299 lung cancer cell line; assay: MTT assay, Taxol with or without SNVIPhyb; type: cell-based; conditions: Homo sapiens
Text: (§1) The ability of SNVIPhyb to inhibit cancer growth was investigated.

[8] = system: CAPAN pancreatic cancer cell line; assay: MTT assay, Taxol with or without SNVIPhyb; type: cell-based
Text: as §1

[9] = system: NCI-H157 lung cancer cell line; assay: MTT assay, Taxol with or without SNVIPhyb; type: cell-based; conditions: Homo sapiens
Text: as §1

[10] = system: PC-3 prostate cancer cell line; assay: MTT assay, Taxol with or without SNVIPhyb; type: cell-based
Text: as §1

[11] = system: MCF-7 breast cancer cells; assay: MTT assay, Taxol with or without SNVIPhyb; type: cell-based; conditions: for IC50: Homo sapiens, MCF7
Text: as §1

[12] = system: lung (NCI-H157 and NCI-H1299), breast (MCF-7), pancreatic (CAPAN) and prostate (PC-3) cancer cell lines; assay: MTT assay, Taxol with or without SNVIPhyb, summary over epithelial cancer cell lines
Text: The effects of SNVIPhyb were then investigated in the presence of Taxol, which affects microtubules, causing dividing cells to arrest in the mitosis (M) phase of growth.
The effect of SNVIPhyb was investigated on other epithelial cancer cell lines.

Question: How did the “effect of the combination with SNH” value [1] turn out when `CCc1c2c(nc3ccc(OC(=O)N4CCC(N5CCCCC5)CC4)cc13)-c1cc3c(c(=O)n1C2)COC(=O)[C@]3(O)CC` [CPT-11] was run?
Answer: Its value is “enhancing effect”.

Question: And the “effect of the combination with the VIP antagonist” value [2]?
Answer: The value was “synergistic”.

Question: What about the “enhancement of the antiproliferative activity of the chemotherapeutic agent by the lipophilic VIP antagonist” value [2] of the same molecule?
Answer: The value was “enhance the antiproliferative activity”.

Question: What about the “reduction of the IC50 of the chemotherapeutic agent by SNH” value ([3]; 5 μM SNH, NCI-H727) of the same molecule?
Answer: Its value is “at least two-fold”.

Question: And the “nature of the combined effect with SNH” value [3]?
Answer: The value was “synergistic”.

Question: What about the “effect of the combination with SNH” value [4] of the same molecule?
Answer: The value was “enhancing effect”.

Question: What does the source list for `CC(=O)O[C@H]1C(=O)[C@@]2(C)[C@H]([C@H](OC(=O)c3ccccc3)[C@]3(O)C[C@H](OC(=O)[C@H](O)[C@@H](NC(=O)c4ccccc4)c4ccccc4)C(C)=C1C3(C)C)[C@]1(OC(C)=O)CO[C@@H]1C[C@@H]2O` [Taxol]?
Answer: reduction of the IC50 of Taxol by SNH [5]: about 6 fold; tumor volume (height×width×depth) [6]: 613 mm^3; IC50 ([7]; NCI-H1299, 10 μM SNVIPhyb, read-out: IC50 with 10 μM SNVIPhyb): 3 µg/mL (≈ 3.51 µM); IC50 ([7]; NCI-H1299, Taxol alone, read-out: IC50): 8 µg/mL (≈ 9.37 µM); IC50 ([8]; 10 μM SNVIPhyb, read-out: IC50 with 10 μM SNVIPhyb): 3 µg/mL (≈ 3.51 µM); IC50 ([8]; Taxol alone, read-out: IC50): 10 µg/mL (≈ 11.7 µM); IC50 ([9]; NCI-H157, 10 μM SNVIPhyb, read-out: IC50 with 10 μM SNVIPhyb): 2.5 µg/mL (≈ 2.93 µM); IC50 ([9]; NCI-H157, Taxol alone, read-out: IC50): 10 µg/mL (≈ 11.7 µM); IC50 ([10]; PC-3, 10 μM SNVIPhyb, read-out: IC50 with 10 μM SNVIPhyb): 5 µg/mL (≈ 5.86 µM); IC50 ([10]; PC-3, Taxol alone, read-out: IC50): 15 µg/mL (≈ 17.6 µM); IC50 ([11]; MCF-7, 3 μM SNVIPhyb, read-out: IC50 in the presence of 3 μM SNVIPhyb): 24 µg/mL; IC50 ([11]; MCF-7, 10 μM SNVIPhyb, read-out: IC50 with 10 μM SNVIPhyb): 2 µg/mL (≈ 2.34 µM); IC50 ([11]; MCF-7, Taxol alone, read-out: IC50): 12 µg/mL (≈ 14.1 µM); increase of cytotoxicity by SNVIPhyb ([11]; MCF-7, combination with SNVIPhyb): increases the cytotoxicity; effect on MCF-7 cells ([11]; Taxol at 1 μg/mL): little effect; interaction with SNVIPhyb at inhibiting cancer cell proliferation ([12]; combination with SNVIPhyb): synergistic; increase of potency in the presence of SNVIPhyb ([12]; epithelial cancer cells): 3-6 fold; IC50 ([12]; read-out: IC50 values over the cell lines): 8 to 15 µg/mL (≈ 9.37 to 17.6 µM); IC50 ([12]; read-out: IC50 values over the cell lines in the presence of 10 μM SNVIPhyb): 2.5 to 5 µg/mL; nature of the combined effect with SNH [3]: very effective; also recorded: synergistic
